Laboratory results as given in patent US4459304A, “Combating pests with 2-anilino-3,5-dinitro-benzotrifluorides” (Bayer Aktiengesellschaft, priority 1977, dated 1984).

Key:
Assay type in all cases: in vivo
[1] = test system: Laphygma exempta (eggs); test: Development-inhibiting action, Laphygma exempta (eggs); conditions: concentration 10 ppm, up to larvae of third stage
Text: (§1) Examples 8 and 9, which are given below, show the arthropod development-inhibiting action of the compounds according to the invention without implying a limitation in respect of the breadth of action of these compounds. In the experiments, the morphological changes, such as half-pupated insects, incompletely slipped larvae or caterpillars, defective wings, pupal cuticula in the case of imagos and the like are rated as malformations over the entire stated development of the test insects. The sum of the morphological malformations, together with the insects killed during the sloughing or the metamorphosis, is given in percent of the test insects.
Test insect: Laphygma exempta (eggs)
Solvent: 10 parts by weight of acetone
(§2) Emulsifier: 1 part by weight of alkylaryl polyglycol ether
To produce a suitable preparation of active compound, 2 parts by weight of active compound were mixed with the stated amount of solvent, emulsifier and sufficient water to produce a 1% strength mixture, which was diluted with water to the desired concentration.
Deposited eggs, at the rate of 30 eggs on a filter-paper, were moistened with 1 ml of active compound solution of the stated concentration in ppm (parts per million) and were observed, in plastic boxes, until the young larvae slipped. The young larvae were fed with corn leaves which had been sprayed with the stated concentration of active compound solution on the same day as the eggs.
The development of the test insects was observed up to the larvae of the third stage.
As a control, deposited eggs were treated in the same manner with solvent and emulsifier of the corresponding concentration, and feeding was carried out with corn leaves.

[2] = test system: two-spotted spider mite (Tetranychus urticae); test: Tetranychus test (resistant), degree of destruction of spider mites on bean plants; conditions: 48 h, after 2 days; for mortality at 0.0001 %: active compound concentration 0.0001%; for mortality at 0.001 %: active compound concentration 0.001%
Description: (§3) Solvent: 3 parts by weight of dimethylformamide
as §2
To produce a suitable preparation of active compound, 1 part by weight of the active compound was mixed with the stated amount of solvent and the stated amount of emulsifier and the concentrate was diluted with water to the desired concentration.
Bean plants (Phaseolus vulgaris) which were heavily infested with the two-spotted spider mite (Tetranychus urticae) in all stages of development were sprayed with the preparation of the active compound until dripping wet.
After the specified periods of time, the degree of destruction was determined as a percentage: 100% meant that all of the spider mites were killed whereas 0% meant that none of the spider mites were killed.

[3] = test system: mustard beetle larvae (Phaedon cochleariae); test: Phaedon larvae test, degree of destruction on cabbage leaves; conditions: 72 h, after 3 days; for mortality at 0.001 %: active compound concentration 0.001%; for mortality at 0.01 %: active compound concentration 0.01%
Description: as §3
Emulsifier: 1 part by weight of alkylarly polyglycol ether
To produce a suitable preparation of active compound, 1 part by weight of the active compound was mixed with the stated amount of solvent containing the stated amount of emulsifier and the concentrate was diluted with water to the desired concentration.
Cabbage leaves (Brassica oleracea) were sprayed with the preparation of the active compound until dripping wet and were then infested with mustard beetle larvae (Phaedon cochleariae).
After the specified periods of time, the degree of destruction was determined in %: 100% meant that all of the beetle larvae had been killed whereas 0% meant that none of the beetle larvae had been killed.

[4] = test system: Ceratitis capitata (eggs); test: Development-inhibiting action, Ceratitis capitata (eggs); conditions: concentration 10 ppm in synthetic feed, eggs until flies slipped
Text: as §1
Test insect: Ceratitis capitata (eggs), 20 specimens
Feed: Synthetic feed (carrot powder with yeast powder)
Solvent: 20 parts by weight of acetone
Emulsifier: 5 parts by weight of alkylaryl polyglycol ether
To produce a suitable preparation of active compound, 4 parts by weight of active compound were mixed with the stated amount of solvent, emulsifier and sufficient water to produce a 1% strength mixture which was diluted with water to the desired concentration.
The eggs of the test insects were placed on a dish with synthetic feed, into which the selected concentration of the active compound mixture was incorporated so that the stated amount of active compound in ppm (parts per million) was obtained. The development was observed until the flies slipped.
As a control, synthetic feed mixed only with solvent and emulsifier of the stated concentration was presented.

SMILES | inhibition at 10 ppm [1] | mortality at 0.0001 % [2] | mortality at 0.001 % [2] | mortality at 0.001 % [3] | mortality at 0.01 % [3] | inhibition at 10 ppm [4]
O=[N+]([O-])c1cc([N+](=O)[O-])c(Nc2c(Cl)cccc2Cl)c(C(F)(F)F)c1 [A, reference compound] | 20% | 0% | 98% |  |  | 
O=[N+]([O-])c1cc([N+](=O)[O-])c(Nc2cc(Cl)ccc2Cl)c(C(F)(F)F)c1 [B, reference compound] |  |  |  | 0% | 100% | 
O=[N+]([O-])c1cc([N+](=O)[O-])c(Nc2ccc(OC(F)(F)F)cc2)c(C(F)(F)F)c1 [Compound 1, 2-(4-trifluoromethoxy-anilino)-3,5-dinitro-benzotrifluoride] |  | 70% | 100% |  |  | 100%
O=[N+]([O-])c1cc([N+](=O)[O-])c(Nc2ccc3c(c2)C(F)(F)OC(F)(F)O3)c(C(F)(F)F)c1 [Compound 2] |  | 100% | 100% |  |  | 
O=[N+]([O-])c1cc([N+](=O)[O-])c(Nc2ccc(SC(F)(F)F)cc2)c(C(F)(F)F)c1 [Compound 4] |  | 99% | 100% | 50% | 100% | 
O=[N+]([O-])c1cc([N+](=O)[O-])c(Nc2ccc(S(=O)(=O)C(F)(F)F)cc2Cl)c(C(F)(F)F)c1 [Compound 7] |  |  |  |  |  | 100%
O=[N+]([O-])c1cc([N+](=O)[O-])c(Nc2c(Cl)cc(S(=O)(=O)C(F)(F)F)cc2Cl)c(C(F)(F)F)c1 [Compound 8] |  |  |  |  |  | 100%
O=[N+]([O-])c1cc([N+](=O)[O-])c(Nc2ccc(OC(F)(F)F)c(Cl)c2)c(C(F)(F)F)c1 [Compound 9] | 100% | 100% | 100% |  |  | 100%
CSc1ccc(Nc2c([N+](=O)[O-])cc([N+](=O)[O-])cc2C(F)(F)F)c(C(F)(F)F)c1 [Compound 10] |  | 50% | 98% |  |  | 
O=[N+]([O-])c1cc([N+](=O)[O-])c(Nc2ccc(OC(F)(F)F)cc2Cl)c(C(F)(F)F)c1 [Compound 13, 2-(2-chloro-4-trifluoromethoxy-anilino)-3,5-dinitro-benzotrifluoride] | 100% | 100% | 100% | 85% | 100% | 100%
O=[N+]([O-])c1cc([N+](=O)[O-])c(Nc2cc(S(=O)(=O)C(F)(F)F)ccc2Cl)c(C(F)(F)F)c1 [Compound 14] |  |  |  | 80% | 100% | 
O=[N+]([O-])c1cc([N+](=O)[O-])c(Nc2ccccc2SC(F)(F)F)c(C(F)(F)F)c1 [Compound 21] |  | 50% | 100% |  |  | 
O=[N+]([O-])c1cc([N+](=O)[O-])c(Nc2cc(SC(F)(F)F)ccc2Cl)c(C(F)(F)F)c1 [Compound 22] |  |  | 100% |  |  | 
O=[N+]([O-])c1cc([N+](=O)[O-])c(Nc2cccc(OC(F)(F)F)c2)c(C(F)(F)F)c1 [Compound 24] |  | 95% | 100% |  |  | 
O=[N+]([O-])c1cc([N+](=O)[O-])c(Nc2cccc(SC(F)(F)F)c2)c(C(F)(F)F)c1 [Compound 25] |  | 95% | 100% |  |  | 
